{"source": "patent US20030232822A1", "about": "“Indole derivatives useful for the treatment of CNS disorders” (H. Lundbeck A/S, priority 2000, published 2003)", "key": {"dopamine D4 receptors": {"target": "T1, dopamine D4 receptors (Homo sapiens, UniProt P21917)", "T1 sequence (P21917 1-419)": "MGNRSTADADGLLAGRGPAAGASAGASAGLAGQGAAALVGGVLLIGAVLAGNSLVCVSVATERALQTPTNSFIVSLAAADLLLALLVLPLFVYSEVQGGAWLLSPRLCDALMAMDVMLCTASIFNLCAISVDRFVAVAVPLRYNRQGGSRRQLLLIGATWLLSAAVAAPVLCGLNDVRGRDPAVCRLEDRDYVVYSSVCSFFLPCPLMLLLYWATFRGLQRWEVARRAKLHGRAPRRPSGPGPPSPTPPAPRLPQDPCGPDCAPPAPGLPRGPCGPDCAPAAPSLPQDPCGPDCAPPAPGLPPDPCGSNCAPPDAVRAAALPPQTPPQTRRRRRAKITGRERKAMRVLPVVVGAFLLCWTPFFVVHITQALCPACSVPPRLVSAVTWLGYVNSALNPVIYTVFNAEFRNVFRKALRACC", "conditions": "various in vitro efficacy assays, Gazi et al.; cited from earlier work"}, "5-HT2A receptors": {"target": "T2, 5-HT2A receptors (Rattus norvegicus, UniProt P14842)", "T2 construct": "membranes from rat brain (cortex) in vitro; from tissue; host or cells: rat brain cortex membranes", "T2 sequence (P14842 whole entry)": "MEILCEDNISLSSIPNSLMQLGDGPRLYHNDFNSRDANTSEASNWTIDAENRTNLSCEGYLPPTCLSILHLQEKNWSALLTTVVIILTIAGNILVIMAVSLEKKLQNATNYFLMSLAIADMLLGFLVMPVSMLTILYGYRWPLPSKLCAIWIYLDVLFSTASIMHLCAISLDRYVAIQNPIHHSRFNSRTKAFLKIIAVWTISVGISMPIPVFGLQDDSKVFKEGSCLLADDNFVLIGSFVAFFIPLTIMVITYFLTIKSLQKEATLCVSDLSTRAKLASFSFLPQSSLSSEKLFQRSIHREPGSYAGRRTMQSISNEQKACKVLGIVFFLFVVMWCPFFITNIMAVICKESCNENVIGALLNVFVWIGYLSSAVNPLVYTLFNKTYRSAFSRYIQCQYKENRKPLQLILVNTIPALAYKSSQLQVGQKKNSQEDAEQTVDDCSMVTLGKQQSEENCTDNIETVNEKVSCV", "test": "Inhibition of the binding of [3H]Ketanserin to 5-HT2A receptors", "conditions": "for 5-HT2A-binding (% inhibition): at 100 nM; for inhibition at 0.1 µM: read-out: 5-HT2A-binding (% inhibition)", "procedure": "Inhibition of the Binding of [^3H]Ketanserin to 5-HT2A Receptors\nThe compounds were tested with respect to their affinity for 5-HT2A receptors by determining their ability to inhibit the binding of [^3H]Ketanserin (0.50 nM) to membranes from rat brain (cortex) in vitro. Method described in Sanchez et al. Drug Dev. Res. 1991, 22, 239-250."}, "[1]": {"target": "T3, human cloned dopamine D4.2 receptors (Homo sapiens, UniProt P21917, DEL265-296)", "T3 construct": "expressed in transfected cells; host or cells: CHO cells", "T3 sequence (P21917 with tags, fused parts or gaps DEL265-296)": "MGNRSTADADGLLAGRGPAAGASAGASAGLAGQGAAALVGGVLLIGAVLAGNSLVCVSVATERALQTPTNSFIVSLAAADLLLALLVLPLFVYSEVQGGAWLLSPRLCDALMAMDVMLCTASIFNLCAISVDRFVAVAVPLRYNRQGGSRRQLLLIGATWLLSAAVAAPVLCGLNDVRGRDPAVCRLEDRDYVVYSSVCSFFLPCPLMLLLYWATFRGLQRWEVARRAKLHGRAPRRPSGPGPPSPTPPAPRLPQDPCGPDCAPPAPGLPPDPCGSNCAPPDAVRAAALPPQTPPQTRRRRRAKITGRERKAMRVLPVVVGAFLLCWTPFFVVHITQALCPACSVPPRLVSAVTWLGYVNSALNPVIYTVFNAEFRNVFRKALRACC", "test": "Inhibition of the binding of [3H]YM-09151-2 to human dopamine D4.2 receptors", "conditions": "[3H]YM-09151-2 0.06 nM, membranes of CHO-cells; for D4-binding (% inhibition): at 50 nM", "procedure": "Inhibition of the Binding of [^3H]YM-09151-2 to Human Dopamine D4.2 Receptors\nBy this method, the inhibition by drugs of the binding of [^3H]YM-09151-2 (0.06 nM) to membranes of human cloned dopamine D4.2 receptors expressed in CHO-cells is determined in vitro. Method modified from NEN Life Science Products, Inc., technical data certificate PC2533-10/96."}, "[2]": {"conditions": "[3H]Ketanserin 0.50 nM, membranes from rat brain (cortex), read-out: 5-HT2A-binding (IC50)"}, "[3]": {"conditions": "[3H]Ketanserin 0.50 nM, membranes from rat brain (cortex)"}}, "note": "Structures can show the parent of a compound that is named as a salt. Where two headings read alike, the source gives them in different places.", "data": [{"smiles": "CC(C)Oc1cccnc1N(C)C1CCN(Cc2ccccc2)CC1", "note": "[Compound U-101958]", "values": [{"measurement": "Functional activity at D4 receptor (literature)", "setting": "dopamine D4 receptors", "value": "partial D4 receptor agonists"}]}, {"smiles": "c1ccc2c(c1)CCCN2CCCN1CCN(c2ccc3[nH]ccc3c2)CC1", "note": "[Compound 4a, 5-{4-[3-(3,4-Dihydro-2H-quinolin-1-yl)propan-1-yl]piperazin-1-yl}-1H-indole]", "values": [{"measurement": "IC50", "setting": "5-HT2A receptors; [2]", "value": 27, "unit": "nM"}, {"measurement": "IC50", "setting": "[1]", "value": 2.6, "unit": "nM"}]}, {"smiles": "O=C1CCc2ccccc2N1CCCN1CC=C(c2ccc3[nH]ccc3c2)CC1", "note": "[Compound 2e, 5-{1-[3-(2-Oxo-3,4-dihydro-2H-quinolin-1-yl)propan-1-yl]-3,6-dihydro-2H-pyridin-4-yl}-1H-indole]", "values": [{"measurement": "IC50", "setting": "5-HT2A receptors", "value": 6.6, "unit": "nM"}, {"measurement": "IC50", "setting": "[1]", "value": 0.97, "unit": "nM"}]}, {"smiles": "O=C1c2ccccc2CCN1CCCCN1CCN(c2ccc3[nH]ccc3c2)CC1", "note": "[Compound 3c]", "values": [{"measurement": "5-HT2A-binding (% inhibition)", "setting": "5-HT2A receptors; [3]", "value": 93, "unit": "% at 100 nM"}, {"measurement": "D4-binding (% inhibition)", "setting": "[1]", "value": 56, "unit": "% at 50 nM"}]}, {"smiles": "O=C1CCc2ccccc2N1CCCCN1CCN(c2ccc3cc[nH]c3c2)CC1", "note": "[Compound 2d, 6-{4-[4-(2-Oxo-3,4-dihydro-2H-quinolin-1-yl)butan-1-yl]piperazin-1-yl}-1H-indole]", "values": [{"measurement": "inhibition at 0.1 µM", "setting": "5-HT2A receptors", "value": 46, "unit": "%"}, {"measurement": "D4-binding (% inhibition)", "setting": "[1]", "value": 58, "unit": "% at 50 nM"}]}, {"smiles": "O=C1CCc2ccccc2N1CCCCN1CCN(c2ccc3[nH]ccc3c2)CC1", "note": "(as salt: hydrochloride) [Compound 2b, 5-{4-[4-(2-Oxo-3,4-dihydro-2H-quinolin-1-yl)butan-1-yl]piperazin-1-yl}-1H-indole]", "values": [{"measurement": "melting point", "value": "233 to 236", "unit": "°C"}]}, {"smiles": "O=C(CCN1CCN(c2ccc3[nH]ccc3c2)CC1)N1CCc2ccccc2C1", "note": "[Compound 5a, 5-{4-[3-(3,4-Dihydro-1H-isoquinolin-2-yl)-3-oxopropan-1-yl]piperazin-1-yl}-1H-indole]", "values": [{"measurement": "inhibition at 0.1 µM", "setting": "5-HT2A receptors", "value": 29, "unit": "%"}, {"measurement": "D4-binding (% inhibition)", "setting": "[1]", "value": 73, "unit": "% at 50 nM"}]}, {"smiles": "O=C1CCc2ccccc2N1CCCN1CCN(c2ccc3[nH]ccc3c2)CC1", "note": "[Compound 2a, 5-{4-[3-(2-Oxo-3,4-dihydro-2H-quinolin-1-yl)propan-1-yl]piperazin-1-yl}-1H-indole]", "values": [{"measurement": "IC50", "setting": "5-HT2A receptors; [2]", "value": 13, "unit": "nM"}, {"measurement": "IC50", "setting": "[1]", "value": 3.2, "unit": "nM"}]}, {"smiles": "O=C1CCc2ccccc2N1CCCCN1CCN(c2ccc3[nH]ccc3c2)CC1", "note": "[Compound 2b, 5-{4-[4-(2-Oxo-3,4-dihydro-2H-quinolin-1-yl)butan-1-yl]piperazin-1-yl}-1H-indole]", "values": [{"measurement": "IC50", "setting": "5-HT2A receptors; [2]", "value": 17, "unit": "nM"}, {"measurement": "IC50", "setting": "[1]", "value": 18, "unit": "nM"}]}, {"smiles": "O=C1COc2ccccc2N1CCCCN1CCN(c2ccc3[nH]ccc3c2)CC1", "note": "[Compound 3a, 5-{4-[4-(3-Oxo-3,4-dihydro-2H-1,4-benzoxazin-4-yl)butan-1-yl]piperazin-4-yl}-1H-indole]", "values": [{"measurement": "5-HT2A-binding (% inhibition)", "setting": "5-HT2A receptors; [3]", "value": 89, "unit": "% at 100 nM"}, {"measurement": "D4-binding (% inhibition)", "setting": "[1]", "value": 56, "unit": "% at 50 nM"}]}, {"smiles": "O=C1c2ccccc2CCN1CCCN1CCN(c2ccc3[nH]ccc3c2)CC1", "note": "[Compound 3b]", "values": [{"measurement": "IC50", "setting": "5-HT2A receptors; [2]", "value": 90, "unit": "nM"}, {"measurement": "D4-binding (% inhibition)", "setting": "[1]", "value": 78, "unit": "% at 50 nM"}]}, {"smiles": "O=C(CCCN1CCN(c2ccc3[nH]ccc3c2)CC1)N1CCc2ccccc2C1", "note": "[Compound 5b, 5-{4-[4-(3,4-Dihydro-1H-isoquinolin-2-yl)-4-oxobutan-1-yl]piperazin-1-yl}-1H-indole]", "values": [{"measurement": "IC50", "setting": "5-HT2A receptors; [2]", "value": 4, "unit": "nM"}, {"measurement": "melting point", "value": "122 to 125", "unit": "°C"}, {"measurement": "D4-binding (% inhibition)", "setting": "[1]", "value": 81, "unit": "% at 50 nM"}]}, {"smiles": "O=C1CCc2ccccc2N1CCN1CCN(c2ccc3[nH]ccc3c2)CC1", "note": "[Compound 1, 5-{4-[2-(2-Oxo-3,4-dihydro-2H-quinolin-1-yl)ethyl]piperazin-1-yl}-1H-indole]", "values": [{"measurement": "IC50", "setting": "5-HT2A receptors; [2]", "value": 29, "unit": "nM"}, {"measurement": "D4-binding (% inhibition)", "setting": "[1]", "value": 90, "unit": "% at 50 nM"}]}, {"smiles": "O=C1CCc2ccccc2N1CCCN1CCC(c2ccc3[nH]ccc3c2)CC1", "note": "[Compound 2f, 5-{1-[3-(2-Oxo-3,4-dihydro-2H-quinolin-1-yl)propan-1-yl]piperidin-4-yl}-1H-indole]", "values": [{"measurement": "IC50", "setting": "5-HT2A receptors; [2]", "value": 22, "unit": "nM"}, {"measurement": "IC50", "setting": "[1]", "value": 1.6, "unit": "nM"}]}, {"smiles": "O=C1CCc2ccccc2N1CCCN1CCN(c2ccc3cc[nH]c3c2)CC1", "note": "[Compound 2c]", "values": [{"measurement": "IC50", "setting": "5-HT2A receptors; [2]", "value": 32, "unit": "nM"}, {"measurement": "D4-binding (% inhibition)", "setting": "[1]", "value": 94, "unit": "% at 50 nM"}]}, {"smiles": "c1ccc2c(c1)CCCN2CCCN1CCN(c2ccc3[nH]ccc3c2)CC1", "note": "[Compound 4b, 5-{4-[3-(3,4-Dihydro-2H-quinolin-1-yl)propan-1-yl]piperazin-1-yl}-1H-indole]", "values": [{"measurement": "IC50", "setting": "5-HT2A receptors; [2]", "value": 19, "unit": "nM"}, {"measurement": "IC50", "setting": "[1]", "value": 8.8, "unit": "nM"}]}]}
